From PubChem BioAssay AID1645871

conditions: pampa; pH 5.0; 30.0 min; 50.0 µM

Structure (SMILES) | Papp [×10⁻⁶ cm/s]
O=C(c1ccc(-c2ncc3cnc(-c4ccccc4)cn23)cc1)N1CCS(=O)(=O)CC1 | 22.8
COc1cc2c(c(OC)c1OC)-c1ccc(SC)c(=O)cc1C(N)CC2 (stereo not drawn) | 55
COc1cc([C@@H](CC(=O)O)c2ccc(C)c(CN3C[C@@H](C)Oc4ccccc4S3(=O)=O)c2)cc2nnn(C)c12 | 898
O=C(NCCCNc1nc(Nc2cccc(CN3CCOCC3)c2)ncc1C1CC1)C1CCC1 | 8.82
Cc1cc(C)cc(C(=O)Nc2ccc3c(N4CCCC4)ncnc3c2)c1 | 506
CNc1nc(-c2ccc3c(N)n[nH]c3c2)cc(N2C[C@@H](C(=O)NC3CCCCC3)CC[C@H]2C)n1 | 26.1
CCN1CCN(c2ncc3c(n2)CCN(Cc2cc(Br)cs2)C3)CC1 | 77.1
CCc1ccc(C2N=C(N)Nc3nc4ccccc4n32)cc1 (stereo not drawn) | 1.54
CCN(CC)CCOc1ccc(Cc2ccccc2)cc1 | 236
Cn1cnc2c(F)c(Nc3ccc(Br)cc3Cl)c(C(=O)NOCCO)cc21 | 151
COc1cc(Cl)c(C)cc1NS(=O)(=O)c1c(C)nc2sccn2c1=O | 802
Cc1cccc(N2CCN(c3nc4ccccc4c4nnc(C)n34)CC2)c1C | > 1000
COc1ccc(OC)c(CN2CCNc3cc(Nc4ccccc4)ncc3C2)c1 | 2.33
Cc1ccc(Cl)cc1NS(=O)(=O)c1cc2c(cc1F)NC(=O)CC2 | 617
C[C@]1(CO)CN(c2cc(C(=O)Nc3ccc4c(c3)-c3c(c(C(N)=O)nn3-c3ccc(F)cc3)CC4)c(Cl)cn2)C[C@@]1(C)CO | 45.6
O=c1[nH]c(N2CCOCC2)nc2c1CCN(Cc1ccc(Cl)cc1F)CC2 | 71.2
COc1cccc(C(=O)Nc2nnc(S(=O)(=O)N3CCOCC3)s2)c1 | 787
COc1ccc(CCNc2ncnc3onc(C)c23)c(OC)c1 | 540
CCOc1ccc(CNC(=O)CCCn2nc(C)c3c(C)n(-c4ccc(C)cc4)nc3c2=O)cc1 | 582
CCCCCn1cc2c(c1-c1ccc(Br)cc1)c(=O)n(C)c(=O)n2C | 946
COc1ccc(NC(=O)c2cc(-c3ccc[nH]3)n[nH]2)cc1OC | 203

Structure (SMILES) | Papp [×10⁻⁶ cm/s]
CCC(=O)N1CCN(c2ccc(-n3c(=O)ccc4cnc5ccc(-c6cnc7ccccc7c6)cc5c43)cc2C(F)(F)F)CC1 | 537
Cc1ccccc1N(C)C1CN([S+](=O)([O-])c2cccc(C(F)(F)F)c2)C1 | 924
CCOC(=O)c1ccc(NC(=O)CSc2nc3c(cc2C#N)N2CCC3CC2)cc1 | 236
CCN(C(=O)C(NS(=O)(=O)c1ccc(Br)s1)c1ccccc1)c1ccc(C)c(C)c1 (stereo not drawn) | 110
CCC1=Nc2cc(C(=O)NC3CCCC3)ccc2Sc2ccc(Cl)cc21 | 640
CN1C(=O)C(=O)N2C(=C[C@]3(c4c[nH]c5ccccc45)c4ccccc4N[C@H]23)C1=O | 986
Cc1cc(-c2ccc(C)c(S(=O)(=O)NCC3CCN(Cc4ccc(F)cc4)CC3)c2)on1 | 486
CCOC(=O)c1ccc(NC(=O)N2Cc3[nH]cnc3C[C@H]2c2nc(C(C)C)no2)cc1 | 16.2
Cc1ccc(-c2c(CN3CCN(c4cccc(C(F)(F)F)c4)CC3)csc2C)cc1 | 35
CCOc1ccccc1C(=O)Nc1ncccc1C(=O)Nc1cccc(S(=O)(=O)C(F)(F)F)c1 | 656
CCOc1ccc(CCNC(=O)c2cc3ccccc3n2C)cc1OCC | > 1000
COc1ccc(-n2nc(C)c([C@@H]3C=C[C@@H](NCc4ccc(F)cc4)C3)c2C)cc1 | 482
CC(NCc1ccc2c(c1)nc(NC(=O)c1ccc(-c3cn[nH]c3)s1)n2CC(C)(C)O)C(C)(C)C (stereo not drawn) | 4.16
COc1cc(C2c3c(oc4cc(C)c(C)cc4c3=O)C(=O)N2CCCN2CCOCC2)ccc1O (stereo not drawn) | 25.3
Oc1ccccc1CN1CCNc2cc(Nc3ccccc3)ncc2C1 | 23.1
COCCNC(=O)[C@H]1C[C@H](Oc2ccccc2)CN1Cc1ccc2[nH]ccc2c1 | 186
COc1ccc(-c2ccc3ncc(Nc4cccnc4OC)n3n2)cn1 | 758
COc1ccccc1C(=O)Nc1nnc(SCc2cc(=O)c3ccccc3[nH]2)s1 | 402
CCn1ncc(NC(=O)Cn2ncc3cc(-c4cccc(OC)c4)ccc32)n1 | 853
COc1ccc(-n2nc(C3CCCN(C(=O)Cc4ccc(F)cc4)C3)[nH]c2=O)cc1 (stereo not drawn) | 524
CCN(CC)C(=O)c1coc(COc2ccc3c(c2)C(c2cccc(F)c2)N(C(=O)C(C)C)CC3)n1 (stereo not drawn) | > 1000

Structure (SMILES) | Papp [×10⁻⁶ cm/s]
c1ccc(-c2cn[nH]c2)cc1 | 51.2
Nc1c(C(=O)Nc2ccc(Cl)cc2)sc2nc3c(cc12)N1CCC3CC1 | 140
CCOc1ccc(-c2cn3c(n2)sc2cc(C(=O)NCCCN(CC)CC)ccc23)cc1 | 114
Cc1ccc(NC(=O)NCC2CCN(Cc3cccc(Cl)c3)CC2)cc1Cl | > 1000
Cc1ccc(S(=O)(=O)Nc2nc3ccc(C)cc3nc2Nc2ccc3c(c2)OCO3)cc1 | 334
O=C(NCCc1ccccn1)C1CC(=O)N(c2n[nH]c3cc(Br)ccc23)C1 (stereo not drawn) | 11.5
COc1ccc(-n2nc(C3CCCN(C(=O)c4ccc(C)cc4)C3)[nH]c2=O)cc1 (stereo not drawn) | 603
CCOc1ccc(N2CC(c3nc(-c4cc(OC)c(OC)c(OC)c4)no3)CC2=O)cc1 (stereo not drawn) | > 1000
CCC(CC)c1cc([C@H]2CN3CC[C@H]2C[C@@H]3CNC(=O)COc2ccccc2)nc(-c2ccncc2)n1 | 374
c1ccc(Nc2cc3c(cn2)CN(Cc2cccs2)CCN3)cc1 | 106
CCC(CC)C(=O)NC[C@@H]1C=C(C)[C@H](Cc2nc3c(C)cccc3[nH]2)C[C@H]1C(C)C | > 1000
O=C(Cc1cccs1)NCc1nnc2ccc(-c3ccccc3)nn12 | 55.9
COc1cccc(CNCc2cccn2-c2nnc(N3CCN(c4ccccc4)CC3)s2)c1 | 924
Cc1cccc(-c2noc([C@@H]3Cc4nc[nH]c4CN3)n2)c1 | 169
CCN(CCCOc1ccc2c(Nc3cc(CC(=O)Nc4cccc(F)c4)[nH]n3)ncnc2c1)CCOP(=O)(O)O | 3.64
COc1cc(Cl)c(C)cc1Nc1c2c(nc3ccccc13)CCC2 | > 1000
Fc1ccccc1-c1nc(NCc2ccc(-c3cccnc3)cc2)c2ccccc2n1 | > 1000
COc1ccc(-c2nc3ccc(C4=NNC(=O)CC4C)cc3[nH]2)cc1 (stereo not drawn) | 232
CCc1[nH]c2ccc(CNC(=O)Cc3cnc4c(C)cccn34)cc2c1C | 32.2
O=c1ncn2nc(Sc3ccc(F)cc3F)ccc2c1-c1c(Cl)cccc1Cl | 793

Next, values leading:

Papp [×10⁻⁶ cm/s] | Structure (SMILES)
680 | O=C(NC1CCCc2c1[nH]c1ccccc21)c1ccccc1 (stereo not drawn)
25.8 | CC(=O)NCCNC[C@@H]1C=C(C)[C@H](Cc2nnc(-c3ccccc3)o2)C[C@H]1C(C)C
42.2 | CC(C)(C)CN1CCNc2cc(Nc3ccccc3)ncc2C1
2.72 | Nc1c(-c2ccncc2)cc[nH]c1=O
425 | Cc1ccc(C(=O)N2CCc3sc(C(=O)NC(C)c4ccccc4)cc3C2)cc1 (stereo not drawn)
498 | Cc1ccc(C(=O)NC2CCN(c3cnn(CC4CC4)c(=O)c3)CC2)cc1C
36.6 | COc1ccc(-c2nc3c(c(SCC(=O)Nc4ccc(C(=O)O)cc4)n2)Cc2ccccc2O3)cc1
5.75 | CCC(=O)NC(c1ccc(OC)cc1)c1cc(Cl)c2cccnc2c1O (stereo not drawn)
153 | COc1ccc(-c2ccc3ncc4c(c3c2)n(-c2ccc(N3CCNCC3)c(C(F)(F)F)c2)c(=O)n4C)cn1
400 | O=C(O)c1ccc(-c2c[nH]c3ncc(-c4ccccc4)cc23)cc1C1CCCC1
145 | CNC(=O)c1ccccc1Nc1nc(Nc2ccc(N3CCOCC3)cc2OC)ncc1Cl
8.57 | CCOC(=O)NNc1ccc(N(CC)CC(C)O)nn1 (stereo not drawn)
654 | O=C(Nc1ccc2c(N3CCOCC3)ncnc2c1)c1cccc(Br)c1
> 1000 | Cc1c(C)n(Cc2ccccc2)c2ccc(C(=O)OCCN(C)C)cc12
808 | CCOC(=O)N1CCN(Cc2nc3cc(NC(=O)c4ccc(OC)cc4)ccc3n2C(C)C)CC1
372 | COc1cc(NC(=O)Cn2c(=O)oc3cc(S(=O)(=O)N4CCCCCC4)ccc32)cc(OC)c1
> 1000 | Cc1cccc(N(C)c2nc3ccccc3c3nnc(C)n23)c1
342 | O=C(Nc1ccccc1-c1cn2c(CN3CCNCC3)csc2n1)c1cnc2ccccc2n1
193 | O=C(NCCCN1CCCC1=O)c1ccc(-c2ncc3cnc(-c4ccccc4)cn23)cc1
637 | CCOc1ccc(OCC)c(NC(=O)C(NS(=O)(=O)c2ccc(Br)s2)c2ccccc2)c1 (stereo not drawn)
446 | COc1cccc(CNC(=O)CCCn2nc(C)c3c(C)n(-c4ccc(C)cc4)nc3c2=O)c1OC

Papp [×10⁻⁶ cm/s] | Structure (SMILES)
296 | O=C(NCc1ccccc1)c1nc(S(=O)(=O)Cc2ccc(F)cc2)ncc1Cl
479 | CCN(c1ccccc1)S(=O)(=O)c1c(C)nc2scc(C)n2c1=O
485 | Cc1cccc(S(=O)(=O)c2cn(Cc3ccccc3)c3cc(N4CCCCC4C)c(F)cc3c2=O)c1 (stereo not drawn)
> 1000 | CC(C)n1cc(-c2ccc3c(c2)N(C)CC3)c2c(NS(=O)(=O)c3ccn(C)n3)ccnc21
> 1000 | COc1ccc(C(=O)N[C@@H]2CCC[C@@H]2C(=O)N2CCC(Cc3ccccc3)CC2)cc1
48.2 | Cc1ccc(-c2nc(C)c(C(=O)Nc3ccc4c(c3)C(=O)N3CCC[C@H]3C(=O)N4)s2)cc1
5.56 | c1coc(-c2nc3ccncc3[nH]2)c1
324 | COc1ccc(CN2CCc3c(c(=O)n4ncc(C(=O)N5CCN(c6ccccc6OC)CC5)c4n3C)C2)cc1
19.4 | O=C(NC[C@H]1Cn2c(-c3ccc(Cl)cc3)cnc2CO1)C1CCCC1
903 | S=c1[nH]c2ccccc2n1CCc1ccccc1
98.7 | CC(C)c1ccccc1-c1nc2c(c(NCc3ccc(-c4cccnc4)cc3)n1)CNC2
59 | CCOc1ccc(Nc2nc(C)c(NC(=O)c3ccc(C)cc3)c(Nc3ccc(OCC)cc3)n2)cc1
7.76 | COc1ccc(C2c3c(oc4ccc(Cl)cc4c3=O)C(=O)N2CCCN(C)C)cc1OC (stereo not drawn)
> 1000 | COc1cc(C2CC(=O)Nc3cc4c(cc32)OCCO4)cc(Br)c1OC (stereo not drawn)
39.3 | CN(C)CCCn1cc(C2=C(c3c[nH]c4ccccc34)C(=O)NC2=O)c2ccccc21
> 1000 | CCOc1ccc(CCNC(=O)c2cccc(C(=O)c3ccccc3)c2)cc1OCC
857 | Cc1ccc(-c2ccc(CNc3nc(-c4ccccc4C(C)C)nc4ccccc34)cc2)cn1
> 1000 | COc1ccc(NC(=O)CCCc2nnc3n(CCC(C)C)c(=O)c4sccc4n23)cc1Cl
49.8 | COc1ccc2[nH]c(S(=O)Cc3ncc(C)c(OC)c3C)nc2n1 (stereo not drawn)
91.5 | Cc1noc([C@@H]2CN(C(=O)c3nn(C)c4ccccc34)C[C@H]2CO)n1
